Converted amounts (≈) assume the structure as drawn. Where a name gives a salt, the structure may show the parent alone.
Legend:
Staphylococcus aureus = experiment: Antibacterial activity against methicillin resistant Staphylococcus aureus after 24 hrs by agar plate dilution method; type: functional
Malassezia furfur = experiment: Antifungal activity against Malassezia furfur after 2 to 4 days by agar plate dilution method; type: functional
Homo sapiens [1] = species on record: Homo sapiens; experiment: Inhibition of human DNA topoisomerase 2 ATPase activity at 400 mM by Topo-2 ATPase assay
Homo sapiens [2] = species on record: Homo sapiens; experiment: Inhibition of human DNA topoisomerase 2 ATPase activity at 200 mM by Topo-2 ATPase assay
MCF7 [3] = experiment: Cytotoxicity against human wild-type MCF7 cells after 72 hrs; type: functional, cell-based; details: MCF7, 72 h
Homo sapiens [4] = species on record: Homo sapiens; experiment: Inhibition of human DNA topoisomerase 2-mediated decatenation of kinetoplast DNA at […] by kinetoplast DNA decatenation assay
[5] = target: ATP-dependent translocase ABCB1 (Homo sapiens, UniProt P08183); experiment: Inhibition of MDR1 in human MCF7/ADR cells assessed as potentiation of verapamil-induced cytotoxicity by measuring cell growth (reference value: 78.2%); type: cell-based; parameters: scale not given: the % may be the effect or the level left
NCI/ADR-RES [6] = experiment: Cytotoxicity against human MCF7/ADR cells after 72 hrs; type: functional, cell-based
Homo sapiens [7] = species on record: Homo sapiens; experiment: Inhibition of human DNA topoisomerase 2 ATPase activity at 300 mM by Topo-2 ATPase assay
MCF7 [8] = experiment: Cytotoxicity against human wild-type MCF7 cells assessed as cell growth at 3 mM after 72 hrs relative to control; type: functional; details: MCF7, 72 h, read-out: Activity
NCI/ADR-RES [9] = experiment: Cytotoxicity against human MCF7/ADR cells assessed as cell growth at 3 mM after 72 hrs relative to control; type: functional; details: read-out: Activity
NCI/ADR-RES [10] = experiment: Cytotoxicity against human MCF7/ADR cells assessed as inhibition of cell proliferation at 10^-6 M after 5 days by MTT assay; type: functional; details: 120 h
K562 [11] = experiment: Induction of apoptosis in human K562 cells assessed as late apoptotic cells at 25 ug/ml by Annexin V/propidium iodide staining-based flow cytometry; type: functional
K562 [12] = experiment: Induction of apoptosis in human K562 cells assessed as late apoptotic cells at 12.5 ug/ml by Annexin V/propidium iodide staining-based flow cytometry; type: functional
K562 [13] = experiment: Antiproliferative activity against human K562 cells after 24 hrs; type: functional, cell-based; details: K562, 24 h
[14] = target: Indoleamine 2,3-dioxygenase 1 (Homo sapiens, UniProt P14902); experiment: Inhibition of IDO-1 (unknown origin)
HL-60 [15] = experiment: Antiproliferative activity against human HL60 cells after 48 hrs; type: functional, cell-based
[16] = Inhibition of EGF-induced HGF production in HDF at 2 mg/ml after 72 hrs by ELISA; type: functional; details: Homo sapiens
[17] = Inhibition of PMA-induced HGF production in HDF at 0.1 mg/ml after 24 hrs by ELISA; type: functional; details: Homo sapiens
K562 [18] = experiment: Induction of apoptosis in human K562 cells assessed as late apoptotic cells at 6.25 ug/ml by Annexin V/propidium iodide staining-based flow cytometry; type: functional
K562 [19] = experiment: Antiproliferative activity against human K562 cells after 48 hrs; type: functional, cell-based; details: K562, 48 h
Rattus norvegicus [20] = experiment: Anti-inflammatory activity in Wistar Han rat assessed as reduction in carrageenan-induced increase in infiltrating cells at 10 mg/kg, po administered 1 hr prior to carrageenan challenge by vital trypan blue staining-based microscopic method; type: functional
MOLT-4 [21] = experiment: Antiproliferative activity against human MOLT4 cells after 48 hrs; type: functional, cell-based; details: MOLT-4, 48 h
K562 [22] = experiment: Antiproliferative activity against human K562 cells after 48 hrs by MTT staining-based method; type: functional, cell-based; details: K562, 48 h
Rattus norvegicus [23] = experiment: Anti-inflammatory activity in Wistar Han rat assessed as reduction in carrageenan-induced exudate volume at 10 mg/kg, po administered 1 hr prior to carrageenan challenge; type: functional
Rattus norvegicus [24] = experiment: Anti-inflammatory activity in Wistar Han rat assessed as reduction of carrageenan-induced PGE2 levels at 10 mg/kg, po administered 1 hr prior to carrageenan challenge by radioimmunoassay; type: functional
HL-60 [25] = experiment: Antiproliferative activity against human HL60 cells after 24 hrs; type: functional, cell-based; details: HL-60, 24 h
[26] = target: T1, Polyunsaturated fatty acid 5-lipoxygenase (Homo sapiens, UniProt P09917); experiment: Inhibition of 5-LO in LPS-stimulated human neutrophils by HPLC analysis
T1 sequence (P09917 whole entry): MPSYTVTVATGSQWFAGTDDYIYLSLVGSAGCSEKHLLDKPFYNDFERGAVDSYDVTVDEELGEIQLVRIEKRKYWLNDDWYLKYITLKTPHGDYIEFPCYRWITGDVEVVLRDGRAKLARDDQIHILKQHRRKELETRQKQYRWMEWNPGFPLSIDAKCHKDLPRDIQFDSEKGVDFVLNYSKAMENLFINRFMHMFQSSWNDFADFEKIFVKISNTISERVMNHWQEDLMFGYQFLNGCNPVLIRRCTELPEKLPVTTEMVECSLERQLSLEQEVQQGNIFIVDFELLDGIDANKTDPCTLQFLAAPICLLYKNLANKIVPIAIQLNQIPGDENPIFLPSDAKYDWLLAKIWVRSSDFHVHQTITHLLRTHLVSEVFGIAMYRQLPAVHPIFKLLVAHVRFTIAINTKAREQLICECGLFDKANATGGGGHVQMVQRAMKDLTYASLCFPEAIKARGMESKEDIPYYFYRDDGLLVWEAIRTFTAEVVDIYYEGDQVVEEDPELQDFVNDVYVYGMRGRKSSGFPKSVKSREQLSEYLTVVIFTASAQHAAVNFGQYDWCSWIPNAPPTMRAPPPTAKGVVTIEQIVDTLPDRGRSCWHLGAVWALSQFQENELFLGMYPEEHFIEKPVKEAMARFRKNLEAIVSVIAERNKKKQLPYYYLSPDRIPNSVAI

[27] = target: T1, Polyunsaturated fatty acid 5-lipoxygenase; experiment: Inhibition of 5-LO in fMLP-stimulated human neutrophils by HPLC analysis
[28] = Antiproliferative activity against spleen cells from SBP-immunized mouse assessed as fluorescence intensity at 5 uM after 3 days by Alamar blue dye-based method (reference value: 2781 +/- 59I); type: functional, Spleen cell
[29] = Antiproliferative activity against spleen cells from SBP-immunized mouse assessed as fluorescence intensity at 10 uM after 3 days by Alamar blue dye-based method (reference value: 2781 +/- 59I); type: functional, Spleen cell
MOLT-4 [30] = experiment: Antiproliferative activity against human MOLT4 cells after 24 hrs; type: functional, cell-based; details: MOLT-4, 24 h
Rattus norvegicus [31] = experiment: Anti-inflammatory activity in Wistar Han rat assessed as reduction of carrageenan-induced pleural LTB4 levels at 10 mg/kg, po administered 1 hr prior to carrageenan challenge by HPLC analysis; type: functional

ATP-dependent translocase ABCB1, sequence (P08183 whole entry): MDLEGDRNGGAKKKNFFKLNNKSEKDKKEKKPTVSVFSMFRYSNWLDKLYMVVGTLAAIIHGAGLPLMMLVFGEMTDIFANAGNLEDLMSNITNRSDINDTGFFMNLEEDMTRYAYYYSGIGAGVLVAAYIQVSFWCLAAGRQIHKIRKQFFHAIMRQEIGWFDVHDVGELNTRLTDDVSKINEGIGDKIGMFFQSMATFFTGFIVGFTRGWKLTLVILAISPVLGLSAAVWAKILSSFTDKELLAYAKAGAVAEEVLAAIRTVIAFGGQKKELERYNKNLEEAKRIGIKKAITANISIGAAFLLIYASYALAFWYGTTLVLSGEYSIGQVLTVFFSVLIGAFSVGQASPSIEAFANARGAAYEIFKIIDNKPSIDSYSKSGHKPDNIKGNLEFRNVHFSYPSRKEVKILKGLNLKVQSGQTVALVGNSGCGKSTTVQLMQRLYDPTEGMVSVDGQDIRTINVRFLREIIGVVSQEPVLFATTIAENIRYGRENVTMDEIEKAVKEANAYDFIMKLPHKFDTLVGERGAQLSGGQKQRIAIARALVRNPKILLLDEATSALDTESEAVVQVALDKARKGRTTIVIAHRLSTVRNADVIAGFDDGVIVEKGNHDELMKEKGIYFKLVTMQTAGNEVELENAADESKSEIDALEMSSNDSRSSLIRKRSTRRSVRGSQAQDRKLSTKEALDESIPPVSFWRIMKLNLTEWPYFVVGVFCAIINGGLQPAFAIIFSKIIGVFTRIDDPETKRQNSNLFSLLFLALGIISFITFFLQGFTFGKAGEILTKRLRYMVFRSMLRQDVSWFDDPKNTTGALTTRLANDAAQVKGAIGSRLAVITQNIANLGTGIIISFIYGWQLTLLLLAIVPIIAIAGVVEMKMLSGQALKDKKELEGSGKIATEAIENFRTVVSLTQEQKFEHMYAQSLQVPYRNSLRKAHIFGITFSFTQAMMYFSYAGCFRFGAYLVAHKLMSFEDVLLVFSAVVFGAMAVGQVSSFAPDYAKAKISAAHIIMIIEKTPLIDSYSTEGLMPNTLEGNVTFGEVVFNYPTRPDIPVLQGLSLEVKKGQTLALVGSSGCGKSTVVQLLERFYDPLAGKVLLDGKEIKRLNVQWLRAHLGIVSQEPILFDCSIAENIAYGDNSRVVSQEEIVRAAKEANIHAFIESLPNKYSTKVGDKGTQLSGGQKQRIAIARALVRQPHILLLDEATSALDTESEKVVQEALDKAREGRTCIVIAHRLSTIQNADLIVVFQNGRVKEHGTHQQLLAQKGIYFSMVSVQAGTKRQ
Indoleamine 2,3-dioxygenase 1, sequence (P14902 whole entry): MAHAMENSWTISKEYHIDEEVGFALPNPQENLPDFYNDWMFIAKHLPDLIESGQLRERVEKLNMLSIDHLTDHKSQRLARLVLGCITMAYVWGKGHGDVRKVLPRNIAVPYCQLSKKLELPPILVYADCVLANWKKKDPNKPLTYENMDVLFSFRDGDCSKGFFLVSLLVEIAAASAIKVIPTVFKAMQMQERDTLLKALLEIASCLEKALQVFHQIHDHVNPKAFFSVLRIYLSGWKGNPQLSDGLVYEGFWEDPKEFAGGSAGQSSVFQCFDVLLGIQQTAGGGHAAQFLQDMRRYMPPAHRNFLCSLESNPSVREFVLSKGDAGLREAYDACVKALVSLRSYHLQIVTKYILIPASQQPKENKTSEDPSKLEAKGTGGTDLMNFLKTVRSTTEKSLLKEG

O=C1c2cc(F)ccc2-n2c1nc1ccccc1c2=O
MIC (Staphylococcus aureus): 0.1 µg/mL (≈ 0.376 µM)
MIC (Malassezia furfur): 1 µg/mL (≈ 3.76 µM)

O=C1c2ccccc2-n2c1nc1ccc(Cl)cc1c2=O
MIC (Staphylococcus aureus): 0.1 µg/mL (≈ 0.354 µM)
MIC (Malassezia furfur): 4 µg/mL (≈ 14.1 µM)

O=C1c2cc3ccccc3cc2-n2c1nc1ccccc1c2=O
inhibition (Homo sapiens [1]): 47.2%
inhibition (Homo sapiens [2]): 30.7%
IC50 (MCF7 [3]): 270 to 12100 nM
inhibition (Homo sapiens [4]): 43.4%
Activity [5]: 59%
IC50 (NCI/ADR-RES [6]): 0.16 to 9.82 µM

COc1ccc2c(c1)C(=O)c1nc3ccccc3c(=O)n1-2
MIC (Staphylococcus aureus): 2.5 µg/mL (≈ 8.98 µM)
MIC (Malassezia furfur): > 120 µg/mL

O=C1c2ccccc2-n2c1nc1ccc([N+](=O)[O-])cc1c2=O
MIC (Staphylococcus aureus): > 100 µg/mL
MIC (Malassezia furfur): > 160 µg/mL

Nc1ccc2nc3n(c(=O)c2c1)-c1ccccc1C3=O
MIC (Staphylococcus aureus): 2 µg/mL (≈ 7.6 µM)
MIC (Malassezia furfur): 20 µg/mL (≈ 76 µM)

Cc1ccc2c(c1)C(=O)c1nc3ccccc3c(=O)n1-2
MIC (Staphylococcus aureus): 0.5 µg/mL (≈ 1.91 µM)
MIC (Malassezia furfur): > 120 µg/mL

COc1ccc(CCN(C)CCCC(C#N)(c2ccc(OC)c(OC)c2)C(C)C)cc1OC (configuration not stated)
Activity [5]: 18.1%

O=C1c2cc(Br)ccc2-n2c1nc1ccccc1c2=O
MIC (Staphylococcus aureus): 0.1 µg/mL (≈ 0.306 µM)
MIC (Malassezia furfur): 2.5 µg/mL (≈ 7.64 µM)

O=C1c2ccccc2-n2c1nc1ccc(Br)cc1c2=O
MIC (Staphylococcus aureus): 0.3 µg/mL (≈ 0.917 µM)
MIC (Malassezia furfur): 4 µg/mL (≈ 12.2 µM)

CO[C@@H]1[C@@H](OC(N)=O)[C@@H](O)[C@H](Oc2ccc3c(O)c(NC(=O)c4ccc(O)c(CC=C(C)C)c4)c(=O)oc3c2C)OC1(C)C
inhibition (Homo sapiens [1]): 60.2%
inhibition (Homo sapiens [2]): 38.5%
inhibition (Homo sapiens [7]): 45.9%

COc1cccc2c1C(=O)c1c(O)c3c(c(O)c1C2=O)C[C@@](O)(C(=O)CO)C[C@@H]3O[C@H]1C[C@H](N)[C@H](O)[C@H](C)O1 [DOXORUBICIN HYDROCHLORIDE]
IC50 (MCF7 [3]): 990 to 2630 nM
growth at 3000 µM (MCF7 [8]): 3.9 to 24.1%
growth at 3000 µM (NCI/ADR-RES [9]): 0.44 to 78.2%
IC50 (NCI/ADR-RES [6]): > 50 µM

COc1cccc2c1C(=O)c1c(O)c3c(c(O)c1C2=O)C[C@@](O)(C(=O)CO)C[C@@H]3O[C@H]1C[C@H](N)[C@H](O)[C@H](C)O1 [DOXORUBICIN]
inhibition at 1 µM (NCI/ADR-RES [10]): 20%

O=C1c2ccccc2-n2c1nc1ccccc1c2=O [TRYPTANTHRIN]
Activity (K562 [11]): 52.2%
IC50 (MCF7 [3]): 580 to 15500 nM
Activity (K562 [12]): 33.4%
MIC (Staphylococcus aureus): 0.5 µg/mL (≈ 2.01 µM)
IC50 (K562 [13]): 15 µM
IC50 [14]: 499 µM
IC50 (HL-60 [15]): 0.002 to 20 mM
inhibition at 2000 µg/mL [16]: 70%
inhibition at 100 µg/mL [17]: 70%
Activity (K562 [18]): 21.9%
IC50 (K562 [19]): 5 µM
inhibition in vivo at 10 mg/kg (Rattus norvegicus [20]): 41%
IC50 (MOLT-4 [21]): 8 µM
IC50 (K562 [22]): 8.8 µg/mL (≈ 35.4 µM)
inhibition in vivo at 10 mg/kg (Rattus norvegicus [23]): 80%
inhibition in vivo at 10 mg/kg (Rattus norvegicus [24]): 42%
IC50 (HL-60 [25]): 5 µM
IC50 [26]: 200 to 600 nM
IC50 [27]: 200 to 600 nM
Flu intensity [28]: 2826
Flu intensity [29]: 2740
IC50 (NCI/ADR-RES [6]): 0.03 to 10 µM
MIC (Malassezia furfur): 4 µg/mL (≈ 16.1 µM)
IC50 (MOLT-4 [30]): 10 µM
inhibition in vivo at 10 mg/kg (Rattus norvegicus [31]): 46%

N[C@@H](Cc1c[nH]c2ccccc12)C(=O)O [TRYPTOPHAN]
IC50 [14]: 499 µM
